Assay [1] deals with T1, human SHIP1 Ptase‐C2 (Homo sapiens, UniProt Q92835).
T1 sequence (Q92835 395-898): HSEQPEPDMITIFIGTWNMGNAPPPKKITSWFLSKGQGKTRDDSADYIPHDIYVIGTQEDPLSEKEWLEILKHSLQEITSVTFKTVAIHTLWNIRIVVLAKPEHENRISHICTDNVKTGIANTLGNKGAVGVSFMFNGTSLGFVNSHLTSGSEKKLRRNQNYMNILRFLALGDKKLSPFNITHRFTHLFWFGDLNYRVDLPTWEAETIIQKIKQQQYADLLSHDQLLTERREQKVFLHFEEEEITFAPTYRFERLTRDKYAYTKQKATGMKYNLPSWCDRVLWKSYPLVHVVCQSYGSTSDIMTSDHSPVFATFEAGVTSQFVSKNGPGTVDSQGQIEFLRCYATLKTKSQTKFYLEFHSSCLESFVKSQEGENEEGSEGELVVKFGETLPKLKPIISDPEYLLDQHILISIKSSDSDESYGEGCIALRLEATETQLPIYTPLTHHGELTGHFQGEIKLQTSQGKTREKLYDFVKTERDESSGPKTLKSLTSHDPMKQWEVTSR
Kind of assay: Malachite green enzyme assay, hSHIP1^395‐898 Ptase‐C2, substrate PtdIns. The format is biochemical.

Assay [2] has as its target T2, HiBit‐SHIP1 (full‐length human SHIP1) (Homo sapiens, UniProt Q92835).
T2 sequence (Q92835 1-1189): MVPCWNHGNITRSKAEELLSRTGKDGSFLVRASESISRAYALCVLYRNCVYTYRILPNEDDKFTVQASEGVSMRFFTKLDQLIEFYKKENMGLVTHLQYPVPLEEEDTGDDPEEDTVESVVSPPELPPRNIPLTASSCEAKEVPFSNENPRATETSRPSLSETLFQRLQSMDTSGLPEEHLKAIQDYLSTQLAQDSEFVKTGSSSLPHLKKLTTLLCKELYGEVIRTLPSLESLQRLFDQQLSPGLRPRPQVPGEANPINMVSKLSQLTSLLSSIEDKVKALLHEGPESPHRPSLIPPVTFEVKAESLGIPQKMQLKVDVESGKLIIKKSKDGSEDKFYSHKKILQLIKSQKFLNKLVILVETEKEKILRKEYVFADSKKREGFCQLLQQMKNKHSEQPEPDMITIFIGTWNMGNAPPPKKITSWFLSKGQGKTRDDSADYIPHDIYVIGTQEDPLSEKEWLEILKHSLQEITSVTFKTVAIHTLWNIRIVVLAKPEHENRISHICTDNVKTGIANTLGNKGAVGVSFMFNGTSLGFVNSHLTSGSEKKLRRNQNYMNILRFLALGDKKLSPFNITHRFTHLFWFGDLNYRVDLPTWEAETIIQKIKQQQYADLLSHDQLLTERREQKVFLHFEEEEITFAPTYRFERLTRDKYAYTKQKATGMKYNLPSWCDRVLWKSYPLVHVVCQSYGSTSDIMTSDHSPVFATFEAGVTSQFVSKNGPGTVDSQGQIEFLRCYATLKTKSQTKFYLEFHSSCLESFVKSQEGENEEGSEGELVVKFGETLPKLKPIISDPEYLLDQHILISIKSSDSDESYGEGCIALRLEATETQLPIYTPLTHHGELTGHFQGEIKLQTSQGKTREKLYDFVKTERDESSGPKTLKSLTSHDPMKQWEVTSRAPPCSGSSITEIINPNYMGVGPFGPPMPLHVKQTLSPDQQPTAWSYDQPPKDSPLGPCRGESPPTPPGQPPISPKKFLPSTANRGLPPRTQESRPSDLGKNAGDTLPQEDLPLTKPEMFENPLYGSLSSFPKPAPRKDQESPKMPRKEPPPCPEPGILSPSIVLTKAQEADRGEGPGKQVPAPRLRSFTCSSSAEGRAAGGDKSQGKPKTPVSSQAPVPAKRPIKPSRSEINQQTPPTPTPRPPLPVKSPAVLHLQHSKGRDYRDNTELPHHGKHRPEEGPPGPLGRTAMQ
Kind of assay: SplitLuc cellular thermal shift assay. The format is cell-based. Particulars: for CETSA % (percent luminescence at the highest dose): highest dose (100 μM); for CETSA TE (target engagement): significant if difference from control at highest dose >3SD.

The test system of assay [3] is primary mouse microglia. Kind of assay: High‐content imaging phagocytosis assay in primary mouse microglia. The format is cell-based.
Assay [4] concerns HMC3 cells. Kind of assay: High‐content imaging assay. The format is cell-based.
Assay [5] deals with BV2 cells. Kind of assay: High‐content imaging assay. The format is cell-based, mouse.

The values below come from PMC10655782 (Alzheimer's & Dementia : Translational Research & Clinical …, 2023).

In general, IC50 refers to the concentration at which inhibition is half-maximal. Low readings indicate greater potency in that assay, high ones weaker potency in that assay. A word on the EC50: it is the midpoint of the concentration-response curve. In assay [1], `Clc1ccc(COc2cncc(-c3cnn(C4CCNCC4)c3)c2)c(Cl)c1` [Compound 23, 3‐((2,4‐Dichlorobenzyl)oxy)‐5‐(1‐(piperidin‐4‐yl)‐1H‐pyrazol‐4‐yl)pyridine, reference compound] registered an IC50 of 251 µM. Besides, in assay [2], the “CETSA % (percent luminescence at the highest dose)” value is recorded as 27 ± 15 (3) % and the “CETSA TE (target engagement)” value is listed as “Yes”. Besides, in assay [3] (Mus musculus, Microglia, read-out: phagocytosis EC50), the EC50 was determined as 0.54 µM. The compound further returned an increased phagocytosis in assay [3] (primary mouse microglia from neonate mice) of 1.5 fold.
The compound `CC(C)CCC[C@@H](C)[C@H]1CC[C@H]2[C@@H]3CCC4C[C@H](N)CC[C@]4(C)[C@H]3CC[C@]12C` (stereo partly drawn) [Compound 13, 3α‐aminocholestane, reference compound] gave an IC50 in assay [1] of 201 µM.
The AC50 is the concentration at which the activity in the assay is half-maximal. In the case of `CC(C)c1ccc(C2C(C#N)=C3N=C(N)c4ccccc4N3C3=C2C(=O)CCC3)cc1` (stereo not shown) [Compound 3], the IC50 in assay [1] came to 26.8 µM. Besides, in assay [2], the AC50 came out at 173 µM, the “CETSA % (percent luminescence at the highest dose)” value is given as 63 ± 12 (2) % and the “CETSA TE (target engagement)” value is reported as “Yes”.
Turning to `CC(=O)C1=C(C)Nc2sc(C(=O)c3ccc(Cl)c(Cl)c3)c(N)c2C1c1cccnc1` (stereo not shown) [Compound 2], in assay [1], the 50% inhibitory concentration (IC50) worked out at 18.6 µM. In assay [2], the AC50 was 46 ± 5 µM, the “CETSA % (percent luminescence at the highest dose)” value is on record as 30 ± 7 (2) % and the “CETSA TE (target engagement)” value was “Yes”. The “cellular phenotype in high‐content imaging (in words)” value in assay [4] was “inactive”. The “cellular phenotype in high‐content imaging (in words)” value in assay [5] was “inactive”.
